The subject of experiment [1] is CD11b+ peripheral blood monocytes. The experiment is described as follows: Ex vivo uptake assay of Aβ1-42 by peripheral blood monocytes. Type of experiment: cell-based, C57BL/6 mice. Particulars: AS01B mouse full dose (5 ug per mouse) or CRX601 2 μg i.m.; FIG. 14. The method, then:
Preparation of cells: Peripheral blood was drawn from C57BL/6 mice via cardiac puncture with lithium-heparin as anticoagulant, 24-hours after injection of the adjuvants used herein. Red blood cell lysis was performed twice on pooled blood with Ammonium Chloride-based Buffer (Sigma, Steinheim, Germany) and cells were counted with the EasyCount™ System (Immunicon). […]
FACS analysis: cells were harvested after incubation with fluorescent Aβ peptide with Trypsin/EDTA and cold PBS and washed three times. 500,000 cells were incubated in 96-well plate for 10 min. on ice in the presence of Rat anti-Mouse CD16/CD32 (clone 2.4G2-BD Fc Block™) and further stained for 30 min. with a combination of the following directly conjugated antibodies at their pre-determined optimal concentration: PE-Hamster anti-Mouse CD3 (clone 145-2C11), Rat anti-Mouse CD45R/B220 (clone RA3-6B2), Rat anti-Mouse Ly-6G (clone 1A8), Mouse anti-Mouse NK1.1 (clone PK136), APC-conjugated Rat anti-Mouse CD11b (clone M1/70), PE-Cy7-conjugated Hamster anti-Mouse CD11c (clone HL3), (all from BD PharMingen). […]
Samples were acquired on a flow cytometer (BD FACSCanto II) and data analyzed with the FACSDiva software (BD Biosciences). […]

Experiment [2] deals with APPSwe/PS1 mice. The experiment in a line: T-water maze. Type of experiment: in vivo. On the procedure: Five groups of APPSwe/PS1 mice received one a week for a period of 12 weeks the following treatment: • Gr1: APPSwe/PS1+NaCl 0.9% n(=20), i.p. injections • Gr4: APPSwe/PS1+CRX527 (20 μg/mouse, 130 μl, n=10), i.p. injections • Gr5: […] (50 μg/mouse, 130 μl, n=10), i.p. injections • Gr8 APPSwe/PS1+AS15 ( 1/10th of human dose, 50 μl, n=10), i.m. injections • Gr9: APPSwe/PS1+AS01B ( 1/10th of human dose, 50 μl, n=10), i.m. injections
Mice were tested during the “light on” phase of the day. Behavioral experimenter was blinded to the genetic and treatment status of animals. To assess hippocampal-dependent spatial learning and memory, mice were trained in the T-water maze task. In this paradigm, we evaluate the mouse's ability to remember the spatial location of submerged platform. The T-maze apparatus (length of stem, 64 cm; length of arms, 30 cm; width, 12 cm; height of walls, 16 cm) was made of clear fiberglass and filled with water (23±1° C.) at a height of 12 cm. A platform (11×11 cm) was placed at the end of the target arm and was submerged 1 cm below the surface. The acquisition phase allows to evaluate animals for left-right spatial learning. During the first two trials, platforms were placed on each arms of the maze to test the spontaneous turning preference of the mouse. After these two trials, the least chosen arm was reinforced by the escape platform. The mice were placed in the stem of the T-maze and choose to swim either left or right until they found the submerged platform and escape to it, to a maximum of 60 s. After reaching the platform, the mice remained on it for 20 s and then were immediately placed back in the maze. […] Repeated trials were presented on the same day up to a maximum of 48 trials. A rest period of at least 10-15 min intervened between each block of 10 trials. A mouse was considered to have learned the task when it made no errors in a block of five consecutive trials. […] The number of trials to reach the criterion (five of five correct choices made on consecutive trials) was measured as well as the latency to find the escape platform.

The structures appear in SMILES notation.

Take `CCCCCCCCCCC[C@H](CC(=O)N[C@H]1[C@H](OC[C@H](NC(=O)C[C@@H](CCCCCCCCCCC)OCCCCCCCCCC)C(=O)O)O[C@H](CO)[C@@H](OP(=O)(O)O)[C@@H]1OC(=O)C[C@@H](CCCCCCCCCCC)OCCCCCCCCCC)OCCCCCCCCCC` [CRX601]: in experiment [1], the “ex vivo uptake of Aβ42 by monocytes compared to PBS group” value is given as “higher amount of Aβ42”. For the same molecule, in experiment [2] (Example 21: twelve weekly injections, CRX527, CRX601 20 μg i.p., 3D MPL 50 μg i.p., AS01B 1/10th human dose i.m., FIG. 24), the “behaviour as assessed by T water maze testing” value is “significant improvements in behaviour”. Further, in experiment [2] (Example 22, i.m. 12× weekly: CRX601 2 μg, CRX601 2 ug in AS03, 3D MPL 5 ug, AS01B 1/10 human dose, unpaired t-tests, FIG. 27A), the “cognitive functions, T-water maze vs PBS-treated control group” value was “significant improvement of their cognitive functions”.

(Values after patent US20120328605A1, “COMPOSITIONS AND USES” (priority 2010, published 2012).)
